From ChEMBL document CHEMBL4052645, “Discovery of potent and efficacious pyrrolopyridazines as dual JAK1/3 inhibitors” (Bioorg Med Chem Lett, 2017)
Activity calls are given as the source filed them. The calls are words filed in the database; no cut-off is given here.

How the values were obtained:
Mus musculus = assay: Antiarthritic activity in collagen-induced arthritis mouse model assessed as reduction in inflammation at 2 mg/kg, po qd measured up to 41 days; type: functional, organism-based
[1] = Drug concentration in mouse at 2 mg/kg, po qd after 24 hrs; type: ADME, organism-based; details: in vivo, read-out: Drug uptake
[2] = target: Cyclin-dependent kinase-like 2 (Homo sapiens) (UniProt Q92772); assay: Inhibition of wild-type human partial length CDKL2 (M1 to D327 residues) expressed in bacterial expression system assessed as residual activity at 50 nM by Kinomescan method relative to control
[3] = Clearance in Sprague-Dawley rat at 2 mg/kg, iv; type: ADME, organism-based; details: in vivo

Chain of Cyclin-dependent kinase-like 2 (Homo sapiens) (Q92772 whole entry, the tested form may be a part): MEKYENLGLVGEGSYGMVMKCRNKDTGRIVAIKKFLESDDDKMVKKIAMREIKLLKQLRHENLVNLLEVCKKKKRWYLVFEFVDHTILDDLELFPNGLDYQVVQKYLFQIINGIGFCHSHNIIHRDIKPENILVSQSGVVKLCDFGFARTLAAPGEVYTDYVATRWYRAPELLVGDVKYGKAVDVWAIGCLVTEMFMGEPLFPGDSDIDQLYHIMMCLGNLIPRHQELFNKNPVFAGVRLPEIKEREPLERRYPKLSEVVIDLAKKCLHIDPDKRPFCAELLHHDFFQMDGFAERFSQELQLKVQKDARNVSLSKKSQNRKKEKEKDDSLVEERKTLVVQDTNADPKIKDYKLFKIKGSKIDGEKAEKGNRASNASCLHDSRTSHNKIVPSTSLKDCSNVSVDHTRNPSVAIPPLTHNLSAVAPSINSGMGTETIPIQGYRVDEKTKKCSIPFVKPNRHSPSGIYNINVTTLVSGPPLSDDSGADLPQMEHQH

| Structure (SMILES) | Activity (Mus musculus) | concentration at 24 h [1] | Activity [2] | clearance [3] |
| --- | --- | --- | --- | --- |
| CC1(C)[C@H](Nc2c(C(N)=O)cnn3cc(-c4ccccc4)cc23)CC[C@]1(C)N | inactive | 60 nM | – | – |
| COc1ccc(-c2cc3c(N[C@@H]4CC[C@](C)(N)C4(C)C)c(C(N)=O)cnn3c2)cn1 | – | – | 93% | 14.1 mL/min/kg |
